From ChEMBL document CHEMBL3774306, “Bisimidazoline arylamides binding to the DNA minor groove: N1-hydroxylation enhances binding affinity and selectivity to AATT sites” (Medchemcomm, 2015)
Activity calls are given as the source filed them. No cut-off for these calls is given here.

Tests used:
[1] = Binding affinity to biotin labelled 5'-CGCGCGCGTTTTCGCGCGCG-3' hairpin dsDNA (unknown origin) immobilized on biosensor chip by surface plasmon resonance analysis; parameters: species or system Homo sapiens
[2] = Binding affinity to biotin labelled 5'-CGAATTCGTCTCCGAATTCG-3' hairpin dsDNA (unknown origin) immobilized on biosensor chip by surface plasmon resonance analysis; parameters: species or system Homo sapiens
Homo sapiens [3] = species on record: Homo sapiens; test: Ratio of primary binding constant to secondary binding constant for biotin labelled 5'-CATATATATCCCCATATATATG-3' hairpin dsDNA (unknown origin) immobilized on biosensor chip by surface plasmon resonance analysis
Homo sapiens [4] = species on record: Homo sapiens; test: Ratio of primary binding constant to secondary binding constant for biotin labelled 5'-CGAATTCGTCTCCGAATTCG-3' hairpin dsDNA (unknown origin) immobilized on biosensor chip by surface plasmon resonance analysis
[5] = Binding affinity to biotin labelled 5'-CATATATATCCCCATATATATG-3' hairpin dsDNA (unknown origin) immobilized on streptavidin-derivatized gold chip incubated for 5 mins followed by dissociation period of 5 mins by surface plasmon resonance analysis; parameters: species or system Homo sapiens
[6] = Binding affinity to fish sperm DNA assessed as hypochromicity change at 30 uM by UV-vis spectrophotometry relative to control; details: Hyperoartia
[7] = Binding affinity to biotin labelled 5'-CATATATATCCCCATATATATG-3' hairpin dsDNA (unknown origin) immobilized on biosensor chip by surface plasmon resonance analysis; parameters: species or system Homo sapiens
Homo sapiens [8] = species on record: Homo sapiens; test: Selectivity ratio of Kd for biotin labelled 5'-CATATATATCCCCATATATATG-3' hairpin dsDNA (unknown origin) to Kd for biotin labelled 5'-CGAATTCGTCTCCGAATTCG-3' hairpin dsDNA (unknown origin)
Homo sapiens [9] = species on record: Homo sapiens; test: Binding affinity to CGAATTCG dsDNA (unknown origin) assessed as isosbestic point at 2.5 uM by UV-vis spectrophotometry
Homo sapiens [10] = species on record: Homo sapiens; test: Binding affinity to CATATATAT dsDNA (unknown origin) assessed as isosbestic point at 2.5 uM by UV-vis spectrophotometry
Homo sapiens [11] = species on record: Homo sapiens; test: Binding affinity to CGCGCGCG dsDNA (unknown origin) assessed as isosbestic point at 2.5 uM by UV-vis spectrophotometry
Homo sapiens [12] = species on record: Homo sapiens; test: Binding affinity to GAATAATCGCGATTATTC dsDNA (39 bp) (unknown origin) assessed as slow binding constant
Homo sapiens [13] = species on record: Homo sapiens; test: Binding affinity to GAATAATCGCGATTATTC dsDNA (39 bp) (unknown origin) assessed as long lasting constant
Homo sapiens [14] = species on record: Homo sapiens; test: Binding affinity to CGAATTCG dsDNA (unknown origin) assessed as spectral changes at 2.5 uM by UV-vis spectrophotometry
Homo sapiens [15] = species on record: Homo sapiens; test: Binding affinity to CATATATAT dsDNA (unknown origin) assessed as spectral changes at 2.5 uM by UV-vis spectrophotometry
Homo sapiens [16] = species on record: Homo sapiens; test: Binding affinity to CGCGCGCG dsDNA (unknown origin) assessed as spectral changes at 2.5 uM by UV-vis spectrophotometry
Homo sapiens [17] = species on record: Homo sapiens; test: Selectivity ratio of Kd for biotin labelled 5'-CGCGCGCGTTTTCGCGCGCG-3' hairpin dsDNA (unknown origin) to Kd for biotin labelled 5'-CATATATATCCCCATATATATG-3' hairpin dsDNA (unknown origin)

Compound	Kd ([1]; read-out: Kd)	Kd [2]	Ratio (Homo sapiens [3])	Ratio (Homo sapiens [4])	Activity [6]	Kd [7]	also measured
CC(C)/N=C(\N)Nc1ccc(NC(=O)c2ccc(N/C(N)=N/C(C)C)cc2)cc1	> 10 µM	–	–	–	–	–	–
c1cc(NC2=NCCN2)cc(Nc2ccc(NC3=NCCN3)cc2)c1	–	2.7 µM	100	100	–	–	Kd [1]: Not Active; Kd [5]: 2.17 µM
[O-][N+]1=C(Nc2ccc(CCc3ccc(NC4=[N+]([O-])CCN4)cc3)cc2)NCC1	76.9 µM	0.87 µM	30	30	9%	4 µM	–
CCO[N+]1=C(Nc2ccc(CCc3ccc(NC4=[N+](OCC)CCN4)cc3)cc2)NCC1	> 29 µM	> 29 µM	100	100	9%	> 29 µM	–
c1cc(NC2=NCCN2)ccc1CCc1ccc(NC2=NCCN2)cc1	19.6 µM	2.78 µM	5	5	–	4.35 µM	–
N=C(N)Nc1ccc(NC(=O)c2ccc(NC(=N)N)cc2)cc1	> 10 µM	–	–	–	–	–	–
O=C(Nc1ccc(NC2=NCCN2)cc1)c1ccc(NC2=NCCN2)cc1	> 10 µM	0.166 µM	100	100	–	0.307 µM	Selectivity ratio (Homo sapiens [8]): 1.5
CO[N+]1=C(Nc2ccc(NC(=O)c3ccc(NC4=[N+](OC)CCN4)cc3)cc2)NCC1	> 10 µM	0.256 µM	100	100	9%	0.351 µM	Selectivity ratio (Homo sapiens [8]): 1.5
[O-][N+]1=C(Nc2ccc(Nc3cccc(NC4=[N+]([O-])CCN4)c3)cc2)NCC1	66.7 µM	0.568 µM	100	100	–	1.79 µM	Activity (Homo sapiens [9]): 325 nm; Activity (Homo sapiens [10]): 335 nm; Activity (Homo sapiens [11]): inactive; K (Homo sapiens [12]): 38 M⁻¹ s⁻¹; K (Homo sapiens [13]): 0.00265 s⁻¹
CC/N=C(\N)Nc1ccc(NC(=O)c2ccc(N/C(N)=N/CC)cc2)cc1	> 10 µM	–	–	–	–	–	–
CC/N=C(\N)Nc1ccc(NC(=O)Nc2ccc(N/C(N)=N/CC)cc2)cc1	–	> 29 µM	–	–	–	> 29 µM	Kd [1]: Not Active
O=C(Nc1ccc(NC2=[N+]([O-])CCN2)cc1)c1ccc(NC2=[N+]([O-])CCN2)cc1	18.5 µM	0.077 µM	100	100	9%	0.273 µM	Activity (Homo sapiens [14]): Active; Activity (Homo sapiens [15]): Active; Activity (Homo sapiens [16]): Active; Selectivity ratio (Homo sapiens [8]): 3.5
O=C(Nc1ccc(NC2=NCCN2)cc1)Nc1ccc(NC2=NCCN2)cc1	159 µM	11.6 µM	100	100	–	8.06 µM	Selectivity ratio (Homo sapiens [17]): 10
